# Measured values as given in patent US11274324B2, “Engineering polyketide synthase in cyanobacteria” (The Regents of the University of California, priority 2019, dated 2022).
# How the values were obtained:
# [1] = test system: S. elongatus AMC2302 wild type; test: Cell toxicity analysis of precursors; assay type: cell-based, Synechococcus elongatus; conditions: final concentration of 1 mM; preliminary analyses, FIG. 12A
# Protocol: FIGS. 12A-12B show cell toxicity analysis to determine the optimal concentration of precursors. FIG. 12A is an image showing cell growth after addition of substrate. Methylmalonate (me-malonate) and propionate were added to S. elongatus AMC2302 wild type at different concentrations: 0, 1, 5, 10, 15, and 20 mM. Each column is a duplicate of the experiment. FIG. 12B is an image showing cell growth after addition of substrate. n-octanol was added to S. elongatus AMC2302 wild type at different concentrations: 0.125, 0.25, 0.5, 1, 2, and 0 mM. Each column is a duplicate (FIG. 12A), or triplicate of the experiment (FIG. 12B).
# While module I was constitutively expressed from Peonn (Elledge and Davis et al. 1989; Taton et al. 2014), the expression and activation of module III depended on the expression of the T7 RNAP and Sfp placed in downstream PconII and under the translational control of theophylline inducible riboswitches. The biosynthesis of methylmalonyl-CoA required methylmalonate (module IA) or propionate (module IC) as substrates, and the transesterification of the ACP-bound MBFA required an alcohol substrate (n-octanol) to produce MBE as the final product. Cell toxicity analysis with methylmalonate, propionate and n-octanol were carried out to determine the optimal concentration of these precursors. (FIG. 12). […]
# S. elongatus = conditions: at low concentrations; previously reported; cited from earlier work
# [2] = test system: S. elongatus recombinant strain MatB F pfm (module IIA); test: Bioconversion assay, MBE production at different theophylline concentrations; assay type: cell-based, Synechococcus elongatus
# Protocol: FIGS. 6A-6B show MBE biosynthesis by recombinant MatB F pfm and MatB B6 pfm cyanobacterial strains induced with different theophylline concentrations.
# The two strains containing module IA (MatB) for methylmalonyl-CoA biosynthesis, modules IIA or IIB for T7 RNAP and Sfp expression, and module III for the Mas and accessory enzyme expression were analyzed. In addition, strains without the module III and a wild type strain were comprised as negative controls. For the bioconversion assays the strains were induced with theophylline 2 mM and 24 h later supplemented with 10 mM methylmalonate, 0.25 mM n-octanol and labeled with 2 μCi ^14C-acetate (58.9 mCi/mmol, PerkinElmer). After addition of the precursors the cultures were grown for 48 h, the in vivo synthesis of MBE was analyzed on total lipid extractions from each culture by TLC fractionation and autoradiography (FIGS. 3A-3B). Additional control bioconversion assays were carried out in the absence of either or both precursors, and labeled MBE synthesized by the E. coli strain RQ1 used as a standard (Menendez-Bravo et al. 2014). […]
# [3] = test system: theophylline dependent riboswitch B; test: Inducible T7 expression system, PT7-YFP reporter fluorescence; assay type: cell-based, S. elongatus; conditions: mutated PconII*
# Protocol: (§1) FIGS. 2A-2B show characterization of inducible T7 expression systems in S. elongatus at different theophylline concentrations. The expression of the T7RNAP was driven by a mutated PconII* and was translationally controlled by riboswitch B (FIG. 2A) or riboswitch F (FIG. 2B). YFP fluorescence served as an easily readable output. Three independent strains were analyzed for each construct and error bars indicate standard deviations of the replicates.
# (§2) To establish a functional and inducible T7RNAP based expression system for S. elongatus, devices were constructed where the transcription of the T7 RNA polymerase was driven by the conII promoter and its translation was controlled by either the theophylline dependent riboswitches B or F (Ma et al 2014). […] Thus, the potentiality of these regulatory devices when using a TRNAP expression system in S. elongatus was studied. Initially, the inventors constructed a reporter device in which the YFP reporter gene was driven by the PT7 and the T7RNAP expression was left under the control of a PconII-riboswitch (B or F). Both the T7RNAP expression systems and the reporter PT7-YFP were independently integrated at NS1 and NS2 of S. elongatus chromosome (Clerico et al 2007).
# [4] = test system: theophylline dependent riboswitch F; test: as above; assay type: cell-based, S. elongatus; conditions: mutated PconII*
# Protocol: as §1, §2
compound,measurement,setting,value
CCC(=O)O [propionate],toxicity for S. elongatus,[1],not toxic
same,toxicity for S. elongatus,S. elongatus,toxic
Cn1c(=O)c2[nH]cnc2n(C)c1=O [theophylline],effect on cell viability,[2]; 8 mM theophylline,detrimental to cell viability
same,theophylline concentration reaching high levels of MBE production,"[2]; module IIA, methylmalonate 10 mM, n-octanol 0.25 mM",4 mM
same,concentration of theophylline needed to reach maximal fluorescence,[3],2 mM
same,concentration of theophylline needed to reach maximal fluorescence,[4],1 mM
